Assay results reported in patent publication US20240336574A1 (LATIGO BIOTHERAPEUTICS, INC., priority 2021, published 2024).

Biological target: human NaV1.8 (Homo sapiens, UniProt Q9Y5Y9)
Test: Activity of representative NaV1.8 inhibitors, determined using one or more of the methods of Example 122 (method not specified)
Format: cell-based
Parameters: expressed in transfected cells; host or cells: HEK293 / HEK-293, stably expressing
Details: inhibition of the Nav1.8 channel; one or more of fluorescence, PatchXpress or IonFlux HT methods
Procedure: The ability of pyridazine carboxamide derivatives exemplified above to inhibit the NaV1.8 channel was determined using one or more of the methods described below.
A HEK293 cell line stably expressing the human NaV1.8 (hNaV1.8) ion channel with β1/β2 subunits was constructed. The cell line is suitable for IC50 determination in fluorescence and electrophysiological based assays. It is also suitable to form mechanism of action pharmacology studies in electrophysiological assays. HEK293 NaV1.8 cells are grown as adherent monolayers in DMEM/high glucose media, 10% fetal bovine serum, Na pyruvate (2 mM), Hepes (10 mM) with selection agents G418 (400 mg/L) and puromycin (0.5 mg/L) at 37 degrees C., 10% CO2.
Activity of Representative NaV1.8 Inhibitors
The ability of representative pyridazine carboxamide derivatives exemplified above to inhibit the Nav1.8 channel was determined using one or more of the methods described immediately hereinabove.

Chain of human NaV1.8 (Q9Y5Y9 whole entry): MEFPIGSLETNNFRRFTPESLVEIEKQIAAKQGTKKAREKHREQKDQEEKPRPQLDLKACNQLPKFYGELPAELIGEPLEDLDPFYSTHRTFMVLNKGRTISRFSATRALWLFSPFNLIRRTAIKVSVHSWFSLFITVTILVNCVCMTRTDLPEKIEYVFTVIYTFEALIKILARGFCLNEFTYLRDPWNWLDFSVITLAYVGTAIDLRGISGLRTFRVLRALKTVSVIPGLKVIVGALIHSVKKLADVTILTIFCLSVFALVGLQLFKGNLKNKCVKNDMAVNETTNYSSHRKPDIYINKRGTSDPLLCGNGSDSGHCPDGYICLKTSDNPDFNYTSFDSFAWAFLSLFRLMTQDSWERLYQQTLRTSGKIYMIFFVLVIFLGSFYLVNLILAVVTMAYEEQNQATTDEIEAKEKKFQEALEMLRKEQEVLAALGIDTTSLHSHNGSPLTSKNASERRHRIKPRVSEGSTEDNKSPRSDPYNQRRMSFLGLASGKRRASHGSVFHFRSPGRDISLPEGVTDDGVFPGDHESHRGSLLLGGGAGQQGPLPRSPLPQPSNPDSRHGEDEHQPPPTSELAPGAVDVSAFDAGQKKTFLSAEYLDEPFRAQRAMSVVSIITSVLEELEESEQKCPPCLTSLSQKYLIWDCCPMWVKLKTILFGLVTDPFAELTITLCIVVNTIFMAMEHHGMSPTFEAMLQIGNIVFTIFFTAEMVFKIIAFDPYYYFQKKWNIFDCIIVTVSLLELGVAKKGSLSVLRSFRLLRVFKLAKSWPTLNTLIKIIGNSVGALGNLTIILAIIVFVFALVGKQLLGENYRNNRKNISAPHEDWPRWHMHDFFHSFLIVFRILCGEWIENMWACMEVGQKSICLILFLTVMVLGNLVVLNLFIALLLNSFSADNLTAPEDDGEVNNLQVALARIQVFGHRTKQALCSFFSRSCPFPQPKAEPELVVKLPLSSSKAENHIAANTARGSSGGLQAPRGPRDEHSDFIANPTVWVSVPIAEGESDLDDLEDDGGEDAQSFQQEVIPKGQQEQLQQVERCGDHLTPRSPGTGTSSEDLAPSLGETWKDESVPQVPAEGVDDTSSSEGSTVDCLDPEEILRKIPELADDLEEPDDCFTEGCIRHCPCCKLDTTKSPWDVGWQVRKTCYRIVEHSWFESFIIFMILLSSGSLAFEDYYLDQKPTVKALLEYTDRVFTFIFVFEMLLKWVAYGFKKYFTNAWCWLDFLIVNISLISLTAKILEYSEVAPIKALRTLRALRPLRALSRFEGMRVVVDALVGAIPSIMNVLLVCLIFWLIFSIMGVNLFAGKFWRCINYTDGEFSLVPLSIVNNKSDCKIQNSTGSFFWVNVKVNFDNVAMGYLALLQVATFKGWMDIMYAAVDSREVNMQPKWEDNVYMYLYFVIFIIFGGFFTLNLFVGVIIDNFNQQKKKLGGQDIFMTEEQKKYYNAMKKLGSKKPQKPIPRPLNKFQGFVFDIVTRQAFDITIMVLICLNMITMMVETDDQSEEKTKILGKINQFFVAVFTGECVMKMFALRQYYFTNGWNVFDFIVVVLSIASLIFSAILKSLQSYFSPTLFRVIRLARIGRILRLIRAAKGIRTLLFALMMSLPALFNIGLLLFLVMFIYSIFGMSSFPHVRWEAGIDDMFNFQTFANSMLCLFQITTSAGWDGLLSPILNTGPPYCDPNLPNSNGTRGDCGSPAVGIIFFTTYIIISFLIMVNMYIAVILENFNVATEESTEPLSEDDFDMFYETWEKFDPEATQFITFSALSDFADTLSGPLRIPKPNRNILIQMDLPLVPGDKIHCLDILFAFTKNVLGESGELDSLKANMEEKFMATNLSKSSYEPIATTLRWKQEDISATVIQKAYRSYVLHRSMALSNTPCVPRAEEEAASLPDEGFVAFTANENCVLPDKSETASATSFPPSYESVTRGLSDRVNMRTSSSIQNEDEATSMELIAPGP

IC50 [nM]	Structure (SMILES)
< 500	COc1cc(F)ccc1Oc1nnc(C(F)(F)F)cc1C(=O)Nc1cccc(S(C)(=N)=O)c1 (centres unmarked) [Example 1, 3-(4-fluoro-2-methoxy-phenoxy)-N-[3-(methylsulfonimidoyl)phenyl]-6-(trifluoromethyl)pyridazine-4-carboxamide]
< 500	Cc1cc(F)ccc1Oc1nnc(C(F)(F)F)cc1C(=O)Nc1cccc(S(C)(=N)=O)c1 (centres unmarked) [Example 2, 3-(4-fluoro-2-methyl-phenoxy)-N-[3-(methylsulfonimidoyl)phenyl]-6-(trifluoromethyl)pyridazine-4-carboxamide]
